pIC50: −log10 of the molar value.
Tests used:
CK1α = biological target: T1, CK1α (Homo sapiens, UniProt P48729+Q96SW2); assay: Western blot degradation of CK1α in hPBMCs (24 h); type: cell-based; conditions: compounds at 50 nM and 500 nM
T1 construct: The supernatant was aspirated as the extracted total cell protein; endogenous in cells; host or cells: human peripheral blood mononuclear cells (hPBMCs)
Outline: (§1)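 PBMC Western blot, 24 h treatment; test levels 50 nM and 500 nM. Band density ÷ internal control, normalised → % remaining; degradation (%) = 1 − remaining.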

WEE1 = biological target: T2, WEE1 (Homo sapiens, UniProt P30291+Q96SW2); assay: Western blot degradation of WEE1 in hPBMCs (24 h); type: cell-based; conditions: compounds at 50 nM and 500 nM
T2 construct: The supernatant was aspirated as the extracted total cell protein; endogenous in cells; host or cells: human peripheral blood mononuclear cells (hPBMCs)
T2 sequence (P30291 whole entry): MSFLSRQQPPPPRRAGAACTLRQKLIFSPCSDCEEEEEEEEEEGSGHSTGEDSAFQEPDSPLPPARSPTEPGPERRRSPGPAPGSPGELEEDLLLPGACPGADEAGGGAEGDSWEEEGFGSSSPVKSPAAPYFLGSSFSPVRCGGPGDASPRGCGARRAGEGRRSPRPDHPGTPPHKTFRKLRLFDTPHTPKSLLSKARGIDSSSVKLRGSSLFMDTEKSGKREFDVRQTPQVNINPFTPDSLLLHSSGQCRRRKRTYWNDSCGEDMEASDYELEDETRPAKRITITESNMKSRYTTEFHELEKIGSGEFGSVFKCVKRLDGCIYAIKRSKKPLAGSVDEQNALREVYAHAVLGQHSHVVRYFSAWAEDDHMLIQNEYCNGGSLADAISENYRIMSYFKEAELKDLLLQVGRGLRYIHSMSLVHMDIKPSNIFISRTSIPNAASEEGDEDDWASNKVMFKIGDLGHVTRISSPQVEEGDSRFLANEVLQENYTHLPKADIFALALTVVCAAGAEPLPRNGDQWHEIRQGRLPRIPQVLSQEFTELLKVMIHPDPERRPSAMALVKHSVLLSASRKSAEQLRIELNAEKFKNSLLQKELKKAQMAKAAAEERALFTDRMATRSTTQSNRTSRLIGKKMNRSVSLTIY
T2 sequence (Q96SW2 whole entry): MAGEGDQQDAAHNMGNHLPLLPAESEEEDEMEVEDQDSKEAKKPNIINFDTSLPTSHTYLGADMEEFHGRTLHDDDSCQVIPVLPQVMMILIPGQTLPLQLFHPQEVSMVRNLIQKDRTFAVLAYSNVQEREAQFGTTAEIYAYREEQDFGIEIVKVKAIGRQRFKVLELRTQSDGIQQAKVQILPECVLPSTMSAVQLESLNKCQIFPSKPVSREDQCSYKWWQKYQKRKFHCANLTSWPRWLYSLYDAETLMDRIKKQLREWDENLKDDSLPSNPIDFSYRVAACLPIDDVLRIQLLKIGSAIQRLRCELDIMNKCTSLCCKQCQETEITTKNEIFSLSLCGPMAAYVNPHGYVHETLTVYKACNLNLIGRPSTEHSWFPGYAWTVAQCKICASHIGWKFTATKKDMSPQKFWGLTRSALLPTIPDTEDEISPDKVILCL
T2 sequence (Q16531 whole entry partner): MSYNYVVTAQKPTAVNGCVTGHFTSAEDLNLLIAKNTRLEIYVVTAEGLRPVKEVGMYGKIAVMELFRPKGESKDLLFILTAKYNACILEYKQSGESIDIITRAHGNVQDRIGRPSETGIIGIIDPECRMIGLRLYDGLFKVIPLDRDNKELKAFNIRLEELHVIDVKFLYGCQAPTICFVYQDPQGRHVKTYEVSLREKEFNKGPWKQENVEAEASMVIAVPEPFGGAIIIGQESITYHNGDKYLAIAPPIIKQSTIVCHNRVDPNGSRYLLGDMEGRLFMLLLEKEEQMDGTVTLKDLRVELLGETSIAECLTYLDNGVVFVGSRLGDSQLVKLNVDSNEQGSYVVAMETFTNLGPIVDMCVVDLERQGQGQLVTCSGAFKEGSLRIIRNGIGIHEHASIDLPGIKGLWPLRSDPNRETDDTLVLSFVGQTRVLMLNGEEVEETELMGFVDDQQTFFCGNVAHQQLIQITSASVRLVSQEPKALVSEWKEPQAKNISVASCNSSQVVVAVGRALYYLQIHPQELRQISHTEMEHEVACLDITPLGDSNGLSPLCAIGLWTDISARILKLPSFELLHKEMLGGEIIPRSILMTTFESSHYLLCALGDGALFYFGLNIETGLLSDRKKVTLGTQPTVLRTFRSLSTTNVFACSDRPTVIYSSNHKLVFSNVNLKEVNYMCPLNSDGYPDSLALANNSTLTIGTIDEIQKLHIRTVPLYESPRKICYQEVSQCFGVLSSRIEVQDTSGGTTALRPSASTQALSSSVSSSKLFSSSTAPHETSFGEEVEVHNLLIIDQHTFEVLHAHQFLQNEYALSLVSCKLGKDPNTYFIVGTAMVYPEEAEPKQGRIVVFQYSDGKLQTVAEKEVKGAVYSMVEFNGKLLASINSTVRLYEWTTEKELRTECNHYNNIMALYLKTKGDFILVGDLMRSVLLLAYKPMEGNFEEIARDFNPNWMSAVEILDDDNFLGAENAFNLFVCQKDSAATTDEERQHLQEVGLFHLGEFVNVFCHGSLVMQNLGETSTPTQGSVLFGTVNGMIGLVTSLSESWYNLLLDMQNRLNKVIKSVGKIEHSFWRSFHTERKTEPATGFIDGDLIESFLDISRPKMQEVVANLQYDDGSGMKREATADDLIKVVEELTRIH
Outline: as §1

MGC803 cells = assay: Inhibition of proliferation of gastric cancer cells MGC803 (cell viability assay, 96 h); type: cell-based, human; conditions: read-out: inhibitory activity (IC50) against tumor cells proliferation, MGC803
Experimental: (§2) The tumor cells used herein were cultured in a cell culture medium listed in table 2 at 37 °C in an incubator with 5% CO2. Prior to experimentation, all cell lines used were correctly identified by STR profiling, and tested negative for Mycoplasma contamination using a Mycoplasma detection kit through routine screenings.
(§3) The IC50 values of the compounds of the present disclosure (including the compounds in Table 1, and Examples 1-498) were determined using the CellTiter-Meiluncell Luminescent Cell Viability Assay Kit from Dalian Meilun Biotech Co., Ltd. The detailed procedure is as follows: Tumor cells were seeded in 96-well cell culture plates at the densities specified in Table 3. On the following day, the test compounds of the present disclosure were subjected to serial dilution. […] Subsequently, 0.5 μL of the test compound dilution was transferred into the 96-well plate containing the cells, with each well containing 100 μL of cell culture medium. […] Into the 96-well plate, the diluted test compounds and corresponding detection reagents were added, resulting in final test compound concentrations of 500 nM and 10 nM, respectively. The experimental procedure is described below using the diluted 2 μM test compound as an example.
(§4) 0.5 μL of the aforementioned diluted compound of the present disclosure (including the compounds in Table 1, and Examples 1-498) was added to the seeded cells in 100 μL of medium, yielding a final test compound concentration of 10 nM. After the cells were treated with the compounds of the present disclosure for a specified period, the cell viability assay reagent was added to the culture medium according to the kit's instructions to determine cell viability. […] All controls were treated using the same procedure as the compounds of the present disclosure. The growth inhibition curves for the compounds of the present disclosure were plotted using Prism GraphPad software, and the IC50 values were calculated therefrom.

GSPT1 = biological target: T3, GSPT1 (Homo sapiens, UniProt P15170+Q96SW2); assay: Western blot degradation of GSPT1 in hPBMCs (24 h); type: cell-based; conditions: compounds at 50 nM and 500 nM
T3 construct: The supernatant was aspirated as the extracted total cell protein; endogenous in cells; host or cells: human peripheral blood mononuclear cells (hPBMCs)
T3 sequence (P15170 whole entry): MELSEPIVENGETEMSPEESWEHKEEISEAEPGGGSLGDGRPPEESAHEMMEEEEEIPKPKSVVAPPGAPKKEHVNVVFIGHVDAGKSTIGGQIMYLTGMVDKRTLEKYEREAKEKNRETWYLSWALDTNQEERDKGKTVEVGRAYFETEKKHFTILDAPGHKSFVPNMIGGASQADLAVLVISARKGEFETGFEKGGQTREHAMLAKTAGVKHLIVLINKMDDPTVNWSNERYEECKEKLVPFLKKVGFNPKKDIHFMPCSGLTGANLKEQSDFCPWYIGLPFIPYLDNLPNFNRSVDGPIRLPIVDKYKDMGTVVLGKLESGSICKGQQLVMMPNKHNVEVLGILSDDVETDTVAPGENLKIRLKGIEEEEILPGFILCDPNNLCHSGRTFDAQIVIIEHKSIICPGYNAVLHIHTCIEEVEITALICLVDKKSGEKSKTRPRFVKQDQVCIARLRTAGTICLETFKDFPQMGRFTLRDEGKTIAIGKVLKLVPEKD
T3 sequence (Q96SW2 whole entry): as the sequence (Q96SW2 whole entry) above
T3 sequence (Q16531 whole entry partner): as the sequence (Q16531 whole entry partner) above
Outline: as §1

IKZF2 = biological target: T4, IKZF2 (Homo sapiens, UniProt Q96SW2+Q9UKS7); assay: Western blot degradation of IKZF2 in hPBMCs (24 h); type: cell-based; conditions: compounds at 50 nM and 500 nM
T4 construct: The supernatant was aspirated as the extracted total cell protein; endogenous in cells; host or cells: human peripheral blood mononuclear cells (hPBMCs)
T4 sequence (Q9UKS7 whole entry): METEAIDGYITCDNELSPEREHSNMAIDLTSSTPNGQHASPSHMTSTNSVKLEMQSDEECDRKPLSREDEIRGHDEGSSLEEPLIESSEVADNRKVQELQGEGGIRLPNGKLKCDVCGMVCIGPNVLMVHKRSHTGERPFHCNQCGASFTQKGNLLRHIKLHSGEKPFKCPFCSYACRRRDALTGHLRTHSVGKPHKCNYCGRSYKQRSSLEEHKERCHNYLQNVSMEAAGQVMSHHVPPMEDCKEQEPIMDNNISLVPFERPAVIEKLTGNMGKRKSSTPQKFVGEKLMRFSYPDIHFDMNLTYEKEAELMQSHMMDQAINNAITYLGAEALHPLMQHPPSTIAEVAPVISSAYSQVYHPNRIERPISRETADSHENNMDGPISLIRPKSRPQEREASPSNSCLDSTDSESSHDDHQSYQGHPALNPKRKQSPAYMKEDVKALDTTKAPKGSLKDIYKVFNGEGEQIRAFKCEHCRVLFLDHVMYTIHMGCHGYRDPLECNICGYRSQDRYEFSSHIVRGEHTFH
T4 sequence (Q96SW2 whole entry): as the sequence (Q96SW2 whole entry) above
T4 sequence (Q16531 whole entry partner): as the sequence (Q16531 whole entry partner) above
Outline: as §1

MM.1S cells = assay: Inhibition of proliferation of multiple myeloma cells MM.1S (cell viability assay, 96 h); type: cell-based, human; conditions: read-out: inhibitory activity (IC50) against tumor cells proliferation, MM.1S
IKZF3 = biological target: T5, IKZF3 (Homo sapiens, UniProt Q96SW2+Q9UKT9); assay: Western blot degradation of IKZF3 in hPBMCs (24 h); type: cell-based; conditions: compounds at 50 nM and 500 nM
T5 construct: The supernatant was aspirated as the extracted total cell protein; endogenous in cells; host or cells: human peripheral blood mononuclear cells (hPBMCs)
Outline: as §1

IKZF1 = biological target: T6, IKZF1 (Homo sapiens, UniProt Q13422+Q96SW2); assay: Western blot degradation of IKZF1 in hPBMCs (24 h); type: cell-based; conditions: compounds at 50 nM and 500 nM
T6 construct: The supernatant was aspirated as the extracted total cell protein; endogenous in cells; host or cells: human peripheral blood mononuclear cells (hPBMCs)
T6 sequence (Q13422 whole entry): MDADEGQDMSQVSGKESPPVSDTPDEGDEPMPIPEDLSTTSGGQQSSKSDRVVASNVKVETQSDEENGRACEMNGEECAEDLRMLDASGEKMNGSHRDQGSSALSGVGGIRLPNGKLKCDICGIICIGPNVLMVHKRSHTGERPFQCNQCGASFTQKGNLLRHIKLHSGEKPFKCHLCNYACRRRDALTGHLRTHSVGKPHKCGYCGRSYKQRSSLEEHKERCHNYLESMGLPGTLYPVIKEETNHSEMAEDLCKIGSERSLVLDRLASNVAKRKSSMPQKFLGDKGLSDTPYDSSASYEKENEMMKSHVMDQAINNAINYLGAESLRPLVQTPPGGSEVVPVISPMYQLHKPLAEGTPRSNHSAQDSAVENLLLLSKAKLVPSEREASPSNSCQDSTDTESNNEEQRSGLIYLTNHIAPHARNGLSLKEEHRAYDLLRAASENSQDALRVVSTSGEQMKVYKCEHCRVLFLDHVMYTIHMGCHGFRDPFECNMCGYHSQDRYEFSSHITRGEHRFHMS
T6 sequence (Q96SW2 whole entry): as the sequence (Q96SW2 whole entry) above
T6 sequence (Q16531 whole entry partner): as the sequence (Q16531 whole entry partner) above
Outline: as §1

MV-4-11 cells = assay: Inhibition of proliferation of myeloid monocytic leukemia cells MV-4-11 (cell viability assay, 96 h); type: cell-based, human; conditions: read-out: inhibitory activity (IC50) against tumor cells proliferation, MV-4-11
Experimental: as §2, §3, §4

Jurkat cells = assay: Inhibition of proliferation of T lymphocytic leukemia cells Jurkat (cell viability assay, 96 h); type: cell-based, human; conditions: read-out: inhibitory activity (IC50) against tumor cells proliferation, Jurkat
Experimental: as §2, §3, §4

T1 sequence (P48729 whole entry): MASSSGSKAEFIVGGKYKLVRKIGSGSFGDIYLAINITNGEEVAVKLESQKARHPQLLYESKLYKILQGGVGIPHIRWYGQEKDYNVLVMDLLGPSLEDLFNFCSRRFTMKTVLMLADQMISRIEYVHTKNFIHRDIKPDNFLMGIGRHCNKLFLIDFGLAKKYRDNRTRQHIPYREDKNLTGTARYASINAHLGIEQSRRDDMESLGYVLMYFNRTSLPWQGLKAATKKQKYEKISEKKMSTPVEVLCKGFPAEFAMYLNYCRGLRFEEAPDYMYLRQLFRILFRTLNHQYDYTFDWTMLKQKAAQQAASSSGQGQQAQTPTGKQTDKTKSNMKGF
T1 sequence (Q96SW2 whole entry): as the sequence (Q96SW2 whole entry) above
T1 sequence (Q16531 whole entry partner): as the sequence (Q16531 whole entry partner) above

Row | SMILES | CK1α substrate protein remaining % (CK1α) | WEE1 substrate protein remaining % (WEE1) | pIC50 (MGC803 cells) | GSPT1 substrate protein remaining % (GSPT1) | IKZF2 substrate protein remaining % (IKZF2) | pIC50 (MM.1S cells) | IKZF3 substrate protein remaining % (IKZF3) | IKZF1 substrate protein remaining % (IKZF1) | pIC50 (MV-4-11 cells) | pIC50 (Jurkat cells)
1 | O=C1CCN(N2Cc3cc(CN4CCN(c5cccc(Cl)c5Cl)CC4)ccc3C2=O)C(=O)N1 [GT-04853, 1-(5-((4-(2,3-dichlorophenyl)piperazin-1-yl)methyl)-1-oxoisoindolin-2-yl)dihydropyrimidine-2,4(1H,3H)-dione] | B (80%< substrate protein remaining % ≤100%) | A (0% ≤ substrate protein remaining % ≤80%) | 6.00 to 6.30 | A (0% ≤ substrate protein remaining % ≤80%) | A (0% ≤ substrate protein remaining % ≤80%) | 6.52 to 7.00 | B (80%< substrate protein remaining % ≤100%) | A (0% ≤ substrate protein remaining % ≤80%) | – | –
2 | O=C1CCN(N2Cc3cc(CN4CCN(C(c5ccccc5)c5ccccn5)CC4)ccc3C2=O)C(=O)N1 (centres unmarked) [GT-04890, 1-(1-oxo-5-((4-(phenyl(pyridin-2-yl)methyl)piperazin-1-yl)methyl)isoindolin-2-yl)dihydropyrimidine-2,4(1H,3H)-dione] | B (80%< substrate protein remaining % ≤100%) | B (80%< substrate protein remaining % ≤100%) | 6.00 to 6.30 | A (0% ≤ substrate protein remaining % ≤80%) | A (0% ≤ substrate protein remaining % ≤80%) | 6.52 to 7.00 | B (80%< substrate protein remaining % ≤100%) | A (0% ≤ substrate protein remaining % ≤80%) | – | –
3 | Cc1cccc(N2CCN(Cc3ccc4c(c3)CN(N3CCC(=O)NC3=O)C4=O)CC2)c1 [GT-06770, 1-(1-oxo-5-((4-(m-tolyl)piperazin-1-yl)methyl)isoindolin-2-yl)dihydropyrimidine-2,4(1H,3H)-dione] | A (0% ≤ substrate protein remaining % ≤80%) | A (0% ≤ substrate protein remaining % ≤80%) | – | A (0% ≤ substrate protein remaining % ≤80%) | A (0% ≤ substrate protein remaining % ≤80%) | – | A (0% ≤ substrate protein remaining % ≤80%) | A (0% ≤ substrate protein remaining % ≤80%) | 6.00 to 6.30 | 6.00 to 6.30
4 | O=C1CCN(N2Cc3cc(CN4CCN(c5cc(Cl)cc(Cl)c5)CC4)ccc3C2=O)C(=O)N1 [GT-06776, 1-(5-((4-(3,5-dichlorophenyl)piperazin-1-yl)methyl)-1-oxoisoindolin-2-yl)dihydropyrimidine-2,4(1H,3H)-dione] | A (0% ≤ substrate protein remaining % ≤80%) | A (0% ≤ substrate protein remaining % ≤80%) | – | A (0% ≤ substrate protein remaining % ≤80%) | A (0% ≤ substrate protein remaining % ≤80%) | – | B (80%< substrate protein remaining % ≤100%) | B (80%< substrate protein remaining % ≤100%) | 6.52 to 7.00 | 6.00 to 6.30
5 | O=C1CCN(N2Cc3cc(CN4CCC(c5cccc(Br)c5)CC4)ccc3C2=O)C(=O)N1 [GT-06885, 1-(5-((4-(3-bromophenyl)piperidin-1-yl)methyl)-1-oxoisoindolin-2-yl)dihydropyrimidine-2,4(1H,3H)-dione] | B (80%< substrate protein remaining % ≤100%) | B (80%< substrate protein remaining % ≤100%) | – | A (0% ≤ substrate protein remaining % ≤80%) | A (0% ≤ substrate protein remaining % ≤80%) | – | B (80%< substrate protein remaining % ≤100%) | A (0% ≤ substrate protein remaining % ≤80%) | 6.52 to 7.00 | –
6 | O=C1CCN(N2Cc3cc(CN4CCC(c5cccc(C(F)(F)F)c5)CC4)ccc3C2=O)C(=O)N1 [GT-06892, 1-(1-oxo-5-((4-(3-(trifluoromethyl)phenyl)piperidin-1-yl)methyl)isoindolin-2-yl)dihydropyrimidine-2,4(1H,3H)-dione] | B (80%< substrate protein remaining % ≤100%) | B (80%< substrate protein remaining % ≤100%) | – | A (0% ≤ substrate protein remaining % ≤80%) | A (0% ≤ substrate protein remaining % ≤80%) | – | B (80%< substrate protein remaining % ≤100%) | A (0% ≤ substrate protein remaining % ≤80%) | 6.00 to 6.30 | –
7 | O=C1CCN(N2Cc3cc(CN4CCC(c5cccc(Cl)c5Cl)CC4)ccc3C2=O)C(=O)N1 [GT-06893, 1-(5-((4-(2,3-dichlorophenyl)piperidin-1-yl)methyl)-1-oxoisoindolin-2-yl)dihydropyrimidine-2,4(1H,3H)-dione] | B (80%< substrate protein remaining % ≤100%) | B (80%< substrate protein remaining % ≤100%) | – | A (0% ≤ substrate protein remaining % ≤80%) | A (0% ≤ substrate protein remaining % ≤80%) | – | B (80%< substrate protein remaining % ≤100%) | A (0% ≤ substrate protein remaining % ≤80%) | 6.52 to 7.00 | 6.00 to 6.30
8 | O=C1CCN(N2Cc3cc(CN4CCC(c5cccc(F)c5Cl)CC4)ccc3C2=O)C(=O)N1 [GT-06894, 1-(5-((4-(2-chloro-3-fluorophenyl)piperidin-1-yl)methyl)-1-oxoisoindolin-2-yl)dihydropyrimidine-2,4(1H,3H)-dione] | B (80%< substrate protein remaining % ≤100%) | B (80%< substrate protein remaining % ≤100%) | – | A (0% ≤ substrate protein remaining % ≤80%) | B (80%< substrate protein remaining % ≤100%) | – | B (80%< substrate protein remaining % ≤100%) | A (0% ≤ substrate protein remaining % ≤80%) | 6.30 to 6.52 | 6.00 to 6.30

— patent US20260356819A1, “OXOISOINDOLINYL-SUBSTITUTED […] DERIVATIVE AND USE THEREOF” (GLUETACS THERAPEUTICS (SHANGHAI) CO., LTD., priority 2023, published 2026)
